Laboratory results: ChEMBL document CHEMBL1201862, “PubChem BioAssay data set” (2004)
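Assay format: 96-well plates, 48-hour exposure. GI50 marks 50% less growth.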 Calls of active or inactive are those of the source. No stated cut-off is given here; in the data, active = GI50 up to about 1.1 µM and inactive = higher.

Key:
Assay in all cases: NCI tumour cell line growth inhibition, 48 h
UO-31 = test system: UO-31
NCI-H23 = test system: NCI-H23
SN12C = test system: SN12C
OVCAR-5 = test system: OVCAR-5
SF-295 = test system: SF-295
COLO 205 = test system: COLO 205
HCC 2998 = test system: HCC 2998
HOP-92 = test system: HOP-92
NCI-H522 = test system: NCI-H522
KM12 = test system: KM12
CCRF-CEM = test system: CCRF-CEM
SK-MEL-5 = test system: SK-MEL-5
HCT-116 = test system: HCT-116
786-0 = test system: 786-0
OVCAR-4 = test system: OVCAR-4
SK-OV-3 = test system: SK-OV-3
A498 = test system: A498
HCT-15 = test system: HCT-15

Compound	GI50 (UO-31)	GI50 (NCI-H23)	GI50 (SN12C)	GI50 (OVCAR-5)	GI50 (SF-295)	GI50 (COLO 205)	GI50 (HCC 2998)	GI50 (HOP-92)	GI50 (NCI-H522)	GI50 (KM12)	GI50 (CCRF-CEM)	GI50 (SK-MEL-5)	GI50 (HCT-116)	GI50 (786-0)	GI50 (OVCAR-4)	GI50 (SK-OV-3)	GI50 (A498)	GI50 (HCT-15) [µM]
Cn1nc(-c2ccccc2NC(=O)C(F)(F)F)c(=O)n(C)c1=S	21.7 µM (inactive)	29.2 µM (inactive)	42.3 µM (inactive)	69.3 µM (inactive)	58.2 µM (inactive)	> 10 µM (inactive)	46.1 µM (inactive)	15.2 µM (inactive)	19.3 µM (inactive)	25.7 µM (inactive)	32.6 µM (inactive)	> 100 µM (inactive)	38.1 µM (inactive)	61.9 µM (inactive)	19.9 µM (inactive)	> 100 µM (inactive)	–	–
CC(=O)n1c2c(c(=O)n1-c1ccccc1)[S+]([O-])CCC2 (centres undefined)	> 100 µM (inactive)	> 100 µM (inactive)	> 91.4 µM (inactive)	> 100 µM (inactive)	–	> 100 µM (inactive)	< 0.01 µM (active)	–	5.65 µM (inactive)	9.1 µM (inactive)	7.5 µM (inactive)	62.4 µM (inactive)	44.1 µM (inactive)	40.7 µM (inactive)	0.705 µM (active)	> 100 µM (inactive)	> 100 µM (inactive)	21.7
NC(=O)/C=C/C(=O)O	> 5000 µM (inactive)	> 5000 µM (inactive)	> 5000 µM (inactive)	> 5000 µM (inactive)	> 5000 µM (inactive)	> 5000 µM (inactive)	–	> 5000 µM (inactive)	> 5000 µM (inactive)	> 5000 µM (inactive)	> 5000 µM (inactive)	> 5000 µM (inactive)	> 5000 µM (inactive)	> 5000 µM (inactive)	> 5000 µM (inactive)	> 5000 µM (inactive)	–	> 5000
COc1ccc(-c2cc(O)c3cc4c(cc3n2)OCO4)cc1OC	> 100 µM (inactive)	> 100 µM (inactive)	> 100 µM (inactive)	–	> 100 µM (inactive)	> 100 µM (inactive)	> 100 µM (inactive)	> 100 µM (inactive)	> 100 µM (inactive)	> 100 µM (inactive)	> 100 µM (inactive)	65.6 µM (inactive)	> 100 µM (inactive)	> 100 µM (inactive)	> 100 µM (inactive)	> 100 µM (inactive)	–	> 100
CCOC(=O)C1Cc2c(ccc(OC)c2OC)C(=O)C1N (centres undefined)	> 100 µM (inactive)	> 100 µM (inactive)	> 100 µM (inactive)	> 100 µM (inactive)	> 100 µM (inactive)	> 100 µM (inactive)	> 100 µM (inactive)	> 100 µM (inactive)	> 100 µM (inactive)	> 100 µM (inactive)	> 100 µM (inactive)	> 100 µM (inactive)	> 100 µM (inactive)	> 100 µM (inactive)	82.2 µM (inactive)	> 100 µM (inactive)	–	> 100
CCc1ccccc1NC(=O)C(=O)C1C(=O)N(c2ccccc2)N=C1N (centres undefined)	> 100 µM (inactive)	> 100 µM (inactive)	> 100 µM (inactive)	> 100 µM (inactive)	> 100 µM (inactive)	–	> 100 µM (inactive)	> 100 µM (inactive)	–	> 100 µM (inactive)	–	> 100 µM (inactive)	> 100 µM (inactive)	> 100 µM (inactive)	> 100 µM (inactive)	–	> 100 µM (inactive)	> 100
O=[N+]([O-])c1ccc(-c2cnc3ccccn23)cc1	> 100 µM (inactive)	> 100 µM (inactive)	61.2 µM (inactive)	> 100 µM (inactive)	> 100 µM (inactive)	> 100 µM (inactive)	–	–	> 100 µM (inactive)	> 100 µM (inactive)	> 100 µM (inactive)	> 100 µM (inactive)	> 100 µM (inactive)	> 100 µM (inactive)	> 100 µM (inactive)	62.5 µM (inactive)	> 100 µM (inactive)	> 100
COc1ccc(NC(=O)CSc2nnc(-c3ccc(NC(C)=O)cc3)o2)cc1	17.7 µM (inactive)	10.7 µM (inactive)	20 µM (inactive)	14.4 µM (inactive)	15.3 µM (inactive)	19.4 µM (inactive)	19.7 µM (inactive)	–	14.5 µM (inactive)	15.1 µM (inactive)	9.55 µM (inactive)	13.2 µM (inactive)	14.6 µM (inactive)	17.2 µM (inactive)	15.7 µM (inactive)	44.1 µM (inactive)	15.5 µM (inactive)	11.2
Cc1ccc(-n2c(C)nc3c2C(=O)c2ccccc2C3=O)cc1	66.7 µM (inactive)	25.9 µM (inactive)	28.4 µM (inactive)	–	25 µM (inactive)	14.6 µM (inactive)	57.5 µM (inactive)	49.4 µM (inactive)	34.7 µM (inactive)	> 100 µM (inactive)	11.1 µM (inactive)	15.2 µM (inactive)	5.73 µM (inactive)	18.5 µM (inactive)	82.8 µM (inactive)	> 100 µM (inactive)	–	7.53
